Results on nine compounds are retold here after PubChem BioAssay (NCI).

Where “and” joins values, the source holds several entries; their conditions need not be identical. Identical values can stand only once.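 Exposure lasted 48 hours, with cells grown in 96-well plates and compounds tested at five concentrations. GI50: concentration for 50% inhibition of growth. At the TGI there is no net growth.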

Among the test systems are A498 renal; HCC-2998 colon; LOX IMVI melanoma; RXF 393 renal; IGROV1 ovarian; 786-0 renal; HL-60(TB) leukemia; U251 CNS; NCI-H460 lung; UACC-62 melanoma.
Test in all cases: growth of human tumour cells (NCI), 48 h

On to `CCCCC(=O)N/N=C/c1c(O)ccc2ccccc12`, for which the GI50 in the assay on A498 renal is 7.71 µM; in the assay on HCC-2998 colon, 3.88 µM; in the assay with LOX IMVI melanoma it was 1.15 µM; in the assay with RXF 393 renal, 2.01 µM; in the assay with IGROV1 ovarian, 0.65 µM; with 786-0 renal, 3.65 µM. Also, the GI50 with HL-60(TB) leukemia was 0.452 µM; with U251 CNS, 1.6 µM; with NCI-H460 lung, 1.36 µM; in the assay with UACC-62 melanoma it was 2.3 µM. Besides, the TGI is 44.4 µM in the assay with A498 renal; > 100 µM with HCC-2998 colon; > 31.8 µM with LOX IMVI melanoma; 15.9 µM in the assay with RXF 393 renal; 7.12 µM in the assay with IGROV1 ovarian; > 59.2 µM in the assay with 786-0 renal. The TGI was > 100 µM with U251 CNS, > 100 µM in the assay on NCI-H460 lung and 14.2 µM in the assay on UACC-62 melanoma.
For the compound `O=[N+]([O-])c1cc(Cl)ccc1OCc1ccccc1`, the TGI in the assay with A498 renal, in the assay on HCC-2998 colon, in the assay with LOX IMVI melanoma, in the assay on RXF 393 renal, with IGROV1 ovarian and with 786-0 renal was > 100 µM in each case. Also, the TGI in the assay on HL-60(TB) leukemia, with U251 CNS, with NCI-H460 lung and in the assay with UACC-62 melanoma was > 100 µM throughout.
Take `CN1CCN(c2nc(NCCCNc3ccnc4cc(Cl)ccc34)c3ccccc3n2)CC1`: the GI50 in the assay on A498 renal is 12.9 µM; with HCC-2998 colon, 3 µM; in the assay with LOX IMVI melanoma, 1.96 µM; with RXF 393 renal it was 1.49 µM; with IGROV1 ovarian, 4.52 µM; in the assay with 786-0 renal, 3.58 µM. In addition, the GI50 is 2.14 µM with HL-60(TB) leukemia, 3.39 µM in the assay on U251 CNS, 3.53 µM in the assay with NCI-H460 lung and 1.95 µM in the assay with UACC-62 melanoma. For the same compound, the TGI came out at 25.6 µM in the assay with A498 renal; 12.5 µM in the assay on HCC-2998 colon; 4.2 µM in the assay on LOX IMVI melanoma; 3.72 µM in the assay on RXF 393 renal; 18.9 µM in the assay on IGROV1 ovarian; 12.9 µM in the assay with 786-0 renal. For the same compound, the TGI with HL-60(TB) leukemia stood at 4.39 µM; in the assay on U251 CNS it was 10.3 µM; with NCI-H460 lung it was 13.4 µM; in the assay on UACC-62 melanoma, 3.86 µM.
On to `O=S1(=O)CS(=O)(=O)OCCO1`, for which the TGI was determined as 154 µM in the assay with A498 renal; 106 µM in the assay with HCC-2998 colon; 71.3 µM with LOX IMVI melanoma; 118 µM in the assay on RXF 393 renal; 144 µM in the assay on IGROV1 ovarian; 159 µM in the assay with 786-0 renal. The TGI in the assay with HL-60(TB) leukemia was 93.1 µM and 61.8 µM; in the assay with U251 CNS, 96.3 µM; with NCI-H460 lung, 69.9 µM; with UACC-62 melanoma, > 78.7 µM and 20.9 µM. Besides, the GI50 with HCC-2998 colon was 68.1 µM; with LOX IMVI melanoma, 29.7 µM; in the assay with RXF 393 renal it was > 94.8 µM; in the assay with IGROV1 ovarian, > 69.7 µM; in the assay on 786-0 renal it was 35.6 µM; in the assay with HL-60(TB) leukemia, 23.9 µM. In addition, the GI50 in the assay with U251 CNS was 18.2 µM; in the assay with NCI-H460 lung, 18.1 µM; in the assay on UACC-62 melanoma, 12 µM.
Regarding `CC(CNCCCNCCNCCCNCO)[N+](=O)[O-]` (configuration not stated), the TGI with A498 renal stood at 32.3 µM; with HCC-2998 colon, 31 µM; in the assay with LOX IMVI melanoma, 28.2 µM; in the assay with RXF 393 renal, 29.2 µM; in the assay on IGROV1 ovarian, 44.3 µM; with 786-0 renal, 29.3 µM. In addition, the TGI came to 19.1 µM in the assay on HL-60(TB) leukemia, 29.5 µM in the assay with U251 CNS, 32.3 µM in the assay on NCI-H460 lung and 29.9 µM with UACC-62 melanoma.
For `C/C(=N\NC(=S)N1CC2CCC(CC2)C1)c1cccc(C)n1`, the TGI is 13.2 µM in the assay on A498 renal; 19.1 µM in the assay with HCC-2998 colon; 8.16 µM in the assay with LOX IMVI melanoma; 14.8 µM with RXF 393 renal; 13.9 µM in the assay with IGROV1 ovarian; 11.7 µM with 786-0 renal. The TGI stood at 4.45 µM in the assay on HL-60(TB) leukemia, 11.8 µM in the assay on U251 CNS, 5.53 µM in the assay on NCI-H460 lung and 6.85 µM in the assay with UACC-62 melanoma. Further, the GI50 was 0.179 µM in the assay on LOX IMVI melanoma, 0.00016 µM in the assay with HL-60(TB) leukemia, 0.408 µM in the assay with U251 CNS and 0.0633 µM in the assay with NCI-H460 lung.
In the case of `Cc1[nH]c(-c2nc3ccccc3[nH]2)c(C)c1C(=O)NC(C)C1CCCCC1` (configuration not stated), the GI50 with A498 renal is 7.71 µM; in the assay on HCC-2998 colon, 13.6 µM; in the assay on LOX IMVI melanoma it was 10 µM; in the assay with RXF 393 renal, 3.17 µM; in the assay on IGROV1 ovarian, 6.16 µM; in the assay with 786-0 renal it was 14.8 µM. In addition, the GI50 was 3.36 µM with HL-60(TB) leukemia, 5.58 µM with U251 CNS, 14.4 µM in the assay with NCI-H460 lung and 6.95 µM in the assay on UACC-62 melanoma. The TGI came out at 20.1 µM in the assay with A498 renal; 34.6 µM with HCC-2998 colon; 29.7 µM in the assay with LOX IMVI melanoma; 11 µM in the assay with RXF 393 renal; 23.9 µM in the assay on IGROV1 ovarian; 32.2 µM in the assay on 786-0 renal. Also, the TGI with HL-60(TB) leukemia turned out to be 13.1 µM; in the assay on U251 CNS, 25.1 µM; in the assay with NCI-H460 lung, 32 µM; in the assay with UACC-62 melanoma it was 21.6 µM.
As for `CCCCNC(=O)c1cc(NCc2cc(O)ccc2O)ccc1O`, the GI50 was 41.1 µM in the assay with A498 renal; 17.6 µM in the assay on HCC-2998 colon; 14.7 µM with LOX IMVI melanoma; 8.53 µM with RXF 393 renal; 26.1 µM in the assay on IGROV1 ovarian; 10.8 µM in the assay on 786-0 renal. Moreover, the GI50 in the assay with HL-60(TB) leukemia was 2.06 µM; in the assay with U251 CNS it was 22.6 µM; in the assay on NCI-H460 lung, 47.3 µM; in the assay with UACC-62 melanoma, 13.7 µM. In addition, the TGI in the assay on A498 renal was > 100 µM; in the assay on HCC-2998 colon it was 35.5 µM; in the assay on LOX IMVI melanoma it was 29.2 µM; in the assay on RXF 393 renal it was 21.4 µM; in the assay on IGROV1 ovarian, 62.7 µM; with 786-0 renal, 23.2 µM. Further, the TGI in the assay on HL-60(TB) leukemia is 6.2 µM; in the assay with U251 CNS, 59.1 µM; in the assay on NCI-H460 lung, > 100 µM; in the assay with UACC-62 melanoma, 27.1 µM.
As to `COc1ccc2c(c1)CC1c3c(ccc(OC)c3O)CC2N1C` (configuration not stated), the TGI in the assay with A498 renal was > 100 µM; in the assay with HCC-2998 colon, 30.8 µM; with LOX IMVI melanoma, 38.9 µM; with RXF 393 renal, 43.6 µM; with IGROV1 ovarian, > 100 µM; with 786-0 renal it was > 73.3 µM. Also, the TGI in the assay on HL-60(TB) leukemia was 40.3 µM; with U251 CNS, > 59.3 µM; in the assay with NCI-H460 lung, 38.8 µM; with UACC-62 melanoma, > 100 µM.
